Counter-ions that a name gives are not always drawn.

The test system of the first test is Cladosporium cucumerinum. Put plainly: melanin biosynthesis inhibition screen, disk diffusion assay on solidified culture.
Conditions: not given
In kind it is cell-based. The protocol:
Potato dextrose medium (PDM) for the screening test is prepared by melting
The mixture is autoclaved as 150 ml aliquots at 121°C for 25 minutes.
A chloramphenicol stock solution is prepared to contain 15 mg chloramphenicol per mL absolute ethanol and is stored at -20°C.
Conidia from Cladosporium cucumerinum, 10^7/mL in 0.03% Tween 20™, retain their viability for at least 12 weeks of storage in 1.8 ml cryovials at -85°C. Inoculum for running the screen are raised once every three months and stored without a cryoprotectant at the working concentration of 10^7 conidia/mL.
Fresh inoculum suspensions are prepared from conidial suspensions stored at -85°C. A cryovial is thawed by hand-heat, and 200 uL spread on the surface of PDA in 9 cm Petri dishes. Plates are placed in a resin box (to prevent fungal escape) and incubated at room temperature, 40 cm below laboratory fluorescent lights. Seven days later conidia are collected. Five mL of 0.03% Tween 20™ is added to each plate, and the conidia are released by rubbing the mycelium with a glass rod. The suspension is passed through a layer of sterile Miracloth™ and the concentration adjusted to 10^7 conidia/mL in 0.03% Tween 20™ using a haemocytometer. Aliquots of 1 mL are dispensed into cryovials and placed in a polystyrene holder to freeze slowly to -85°C.
For the test, 150 mL of PDM is cooled to 35°C, and 0.1 mL of chloramphenicol stock solution is added by gentle swirling. A vial of C. cucumerinum conidial suspension (10^7 conidia/ml in Tween 20™) thawed with hand-heat is mixed into the growth medium using gentle swirling. The mixture is poured immediately into a Biotray, and the agar is allowed to solidify.
Test compounds are applied to 0.63 cm (¼ inch) filter disks. Each test includes a positive control, 200 ng tricyclazole in 20% dimethyl sulphoxide (DMSO). The plate is incubated at room-temperature (∼23°C) 40 cm below laboratory fluorescent lights. The plate is read 40 hours later. […] The Biotrays are autoclaved before disposal.
The compounds are applied as 20 ul droplets from a 1 mg/ml stock solution.
For `Nc1ncnc2c1ccn2[C@@H]1O[C@H](CO)[C@@H](O)[C@H]1O` [Tubercidin], the “Observation: fungal thinning, radius” value was “fungal thinning, 10 mm radius”.

The test is the same for the next values; noted with them: Antifungal Panel; effect on growth and pigmentation in words; 20 ul droplets from a 1 mg/ml stock solution on filter disk; read 40 hours later.
Take Maneb: the Observation entry was “no effect on pigmentation, growth thin”. In the case of `C=CC1(C)OC(=O)N(c2cc(Cl)cc(Cl)c2)C1=O` (centres unmarked) [Ronilon], the Observation result is given as “very slight effect on growth”.

The same test, now with this note: Antifungal Panel; growth inhibition zone; 20 ul droplets from a 1 mg/ml stock solution on filter disk; read 40 hours later.
As for `Nc1nc(=O)[nH]cc1F` [5-Fluoro-Cytosine], the “Observation: inhibits, radius cleared” value is “inhibits, 35 mm radius cleared”. The same measure, in the same setting: to `Clc1ccc(COC(Cn2ccnc2)c2ccc(Cl)cc2Cl)cc1` (centres unmarked) [Econazole] belongs “inhibits, 32 mm radius cleared”. On the same count and under the same terms, under `NC[C@H]1O[C@H](O[C@H]2[C@H](O)[C@@H](O[C@H]3O[C@H](CO)[C@@H](O)[C@H](N)[C@H]3O)[C@H](N)C[C@@H]2N)[C@H](O)[C@@H](O)[C@@H]1O` [Kanamycin] stands “inhibits, 10 mm radius cleared”.

On to `CC(=O)N1CCN(c2ccc(OCC3COC(Cn4ccnc4)(c4ccc(Cl)cc4Cl)O3)cc2)CC1` (centres unmarked) [Ketoconazole], for which the “Observation: inhibits, radius cleared” value is “inhibits, 26 mm radius cleared”. The same measure, in the same setting: to `CC1=C(C(=O)Nc2ccccc2)SCCO1` [Carboxin] belongs “inhibits, 21 mm radius cleared”; to Tunicamycin, “inhibits, 22 mm radius cleared”. With `Clc1cc(Cl)c(OCC#CI)cc1Cl` [Haloprofin], the “Observation: inhibits, radius cleared” value is “inhibits, 13 mm radius cleared”. Same read-out and setting: under `NC(=O)OC[C@H](O)[C@@H](O)[C@H](N)C(=O)N[C@H](C(=O)O)[C@H]1O[C@@H](n2cc(C(=O)O)c(=O)[nH]c2=O)[C@H](O)[C@@H]1O` [Polyoxin D] stands “inhibits, 7 mm radius cleared”.

The test is the same for the next values; noted with them: C. cucumerinum Antibiotic Panel; effect on growth and pigmentation in words; screen of Example 1.
Regarding `[H]/N=C(/N)N[C@H]1[C@H](O)[C@@H](O)[C@H](O[C@@H]2O[C@@H](C)[C@](O)(C=O)[C@H]2O[C@@H]2O[C@@H](CO)[C@H](O)[C@@H](O)[C@@H]2NC)[C@@H](N/C(N)=N\[H])[C@@H]1O` [Streptomycin Sulfate], the Observation result is “no effect on growth or pigmentation”. Still for that read-out and setting: under Trichomycin stands “no effect on growth or pigmentation”.

Turning to Neohumidin, the Observation entry is on record as “no effect on growth or pigmentation”.

Take `CC[C@H]1OC(=O)C[C@@H](O)[C@H](C)[C@@H](O[C@@H]2O[C@H](C)[C@@H](O[C@H]3C[C@@](C)(O)[C@@H](O)[C@H](C)O3)[C@H](N(C)C)[C@H]2O)[C@@H](CC=O)C[C@@H](C)C(=O)/C=C/C(C)=C/[C@@H]1CO[C@@H]1O[C@H](C)[C@@H](O)[C@@H](OC)[C@H]1OC` [Tylosin Tartrate]: the Observation entry was “no effect on growth or pigmentation”. On the same count and under the same terms, under Monicamycin stands “no effect on growth or pigmentation”.

As to `Cc1cc(=O)n2c3c(c4c(cc13)c(CO)cc(=O)n4C)OC2` [Nybomycin], the Observation result is “no effect on growth or pigmentation”. Still for that read-out and setting: under `C[C@@H]1C/C=C/C=C/C=C/C=C/[C@H](O[C@@H]2O[C@H](C)[C@@H](O)[C@H](N)[C@@H]2O)C[C@@H]2O[C@](O)(C[C@@H](O)C[C@H]3O[C@@H]3/C=C/C(=O)O1)C[C@H](O)[C@H]2C(=O)O` [Tennecetin] stands “no effect on growth or pigmentation”.

The test is the same for the next values; noted with them: C. cucumerinum Antibiotic Panel; growth inhibition zone; screen of Example 1.
As to Azalomycin, the “Observation: inhibits, radius cleared” value is given as “inhibits, 14 mm radius cleared”. For the compound `CC(=O)Nc1c2sscc-2n(C)c1=O` [Thiolutin], the “Observation: inhibits, radius cleared” value was “inhibits, 23 mm radius cleared”. For `Nc1ccn([C@@H]2O[C@H]([C@H](O[C@@H]3O[C@H](CO)[C@@H](O)[C@H](N)[C@H]3O)[C@@H](O)[C@@H](O)[C@H](O)[C@H](O)CO)[C@@H](N)[C@H](O)[C@H]2O)c(=O)n1` [Anthelmycin], the “Observation: inhibits, radius cleared” value is recorded as “inhibits, 14 mm radius cleared”.

The same test, now with this note: C. cucumerinum Antibiotic Panel; screen of Example 1.
Take `COc1oc([C@H]2C/C(=C/C(C)=C/c3ccc([N+](=O)[O-])cc3)CO2)c(C)c(=O)c1C` [Mycolutein]: the “Observation: fungal thinning, radius” value is reported as “fungal thinning, 16 mm radius”. For Sulfocidin, the “Observation: fungal thinning, radius” value was “fungal thinning, 5 mm radius”.

For the origin of these results see patent EP0635577B1, “Screen for inhibitors of melanin biosynthesis” (BASF AKTIENGESELLSCHAFT, priority 1993, dated 1995).
